The results in this text go back to ChEMBL document CHEMBL1201862, “PubChem BioAssay data set” (2004).

Assay [1] has as its target Adenosylmethionine-8-amino-7-oxononanoate aminotransferase (Mycobacterium tuberculosis, UniProt P9WQ81). As to the kind of experiment: Mycobacterium tuberculosis BioA enzyme inhibitor Measured in Biochemical System Using Plate Reader - 2163-02_Inhibitor_Dose_CherryPick_Activity. The class given is functional, Mycobacterium tuberculosis UT205.
Assay [2] addresses T1, Low molecular weight phosphotyrosine protein phosphatase (Homo sapiens, UniProt P24666).
T1 sequence (P24666 whole entry): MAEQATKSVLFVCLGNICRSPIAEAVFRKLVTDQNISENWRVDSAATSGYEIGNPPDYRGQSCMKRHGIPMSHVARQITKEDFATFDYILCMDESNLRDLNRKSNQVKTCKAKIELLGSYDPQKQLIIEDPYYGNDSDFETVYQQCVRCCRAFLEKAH
The class given is functional. As to conditions: read-out: IC50_Mean.

The target in assay [3] is Cytochrome P450 3A4 (Homo sapiens, UniProt P08684).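 Further: CYP3A4 tested as one member of a cytochrome P450 panel screen.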
Assay [4] addresses Cytochrome P450 2C19 (Homo sapiens, UniProt P33261). Put plainly: Cytochrome panel assay with activity outcomes. Panel member name: p450-cyp2c19 Compounds with AC50 equal or less than 10 uM are considered active. The class given is functional. As to conditions: read-out: AC50.
Assay [5] concerns the target Cytochrome P450 2C9 (Homo sapiens, UniProt P11712).
Assay [6] deals with T1, Low molecular weight phosphotyrosine protein phosphatase. The class given is functional. To be noted: read-out: IC50_Mean. The source holds these as a separate data set.
In assay [7] the target is T2, Apoptotic protease-activating factor 1 (Homo sapiens, UniProt O14727).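 Further: caspase-3 cleavage of fluorogenic Rh110 DEVD substrate downstream of apoptosome activation.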
T2 sequence (O14727 whole entry): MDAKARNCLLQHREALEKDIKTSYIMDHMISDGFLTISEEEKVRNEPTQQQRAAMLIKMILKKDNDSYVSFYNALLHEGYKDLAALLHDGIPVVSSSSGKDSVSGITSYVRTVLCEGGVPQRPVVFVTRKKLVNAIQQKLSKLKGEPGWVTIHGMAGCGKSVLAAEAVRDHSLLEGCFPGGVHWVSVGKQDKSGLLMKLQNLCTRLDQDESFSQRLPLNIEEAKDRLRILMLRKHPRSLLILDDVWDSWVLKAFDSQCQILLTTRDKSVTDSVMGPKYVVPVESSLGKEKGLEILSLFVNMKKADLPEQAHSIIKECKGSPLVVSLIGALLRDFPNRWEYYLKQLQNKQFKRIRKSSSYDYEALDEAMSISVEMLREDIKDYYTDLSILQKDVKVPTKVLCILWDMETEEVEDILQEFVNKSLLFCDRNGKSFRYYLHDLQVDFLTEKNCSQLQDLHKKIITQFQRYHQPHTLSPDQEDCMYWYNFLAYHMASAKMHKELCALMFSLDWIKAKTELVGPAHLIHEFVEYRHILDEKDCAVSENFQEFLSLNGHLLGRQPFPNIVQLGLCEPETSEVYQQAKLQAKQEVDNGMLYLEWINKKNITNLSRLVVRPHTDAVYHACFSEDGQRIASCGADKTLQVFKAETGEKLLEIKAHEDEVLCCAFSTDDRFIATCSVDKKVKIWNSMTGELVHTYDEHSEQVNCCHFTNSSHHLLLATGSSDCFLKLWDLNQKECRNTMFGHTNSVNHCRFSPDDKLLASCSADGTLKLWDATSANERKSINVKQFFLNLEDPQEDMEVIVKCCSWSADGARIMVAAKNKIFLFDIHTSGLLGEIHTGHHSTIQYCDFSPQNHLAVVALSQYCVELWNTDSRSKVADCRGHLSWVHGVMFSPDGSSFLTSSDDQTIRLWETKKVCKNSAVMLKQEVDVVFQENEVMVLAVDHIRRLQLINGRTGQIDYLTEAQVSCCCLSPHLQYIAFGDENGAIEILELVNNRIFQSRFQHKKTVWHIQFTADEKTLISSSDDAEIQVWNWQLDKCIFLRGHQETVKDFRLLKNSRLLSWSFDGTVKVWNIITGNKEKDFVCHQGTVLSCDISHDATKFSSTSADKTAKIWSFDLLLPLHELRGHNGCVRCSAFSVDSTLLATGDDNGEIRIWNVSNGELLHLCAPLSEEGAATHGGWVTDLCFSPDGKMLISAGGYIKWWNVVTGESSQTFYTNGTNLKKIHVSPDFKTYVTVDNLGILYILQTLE
Put plainly: SAR analysis of small molecule Activators of Apaf-1 in a Fluorescent assay. To be noted: read-out: EC50_Mean. The class given is functional.

The target in assay [8] is T3, Sentrin-specific protease 8 (Homo sapiens, UniProt Q96LD8).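 Further: luminescence read-out of SENP8 inhibition, dose-response confirmation following an ultra-high-throughput screen.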
T3 sequence (Q96LD8 whole entry): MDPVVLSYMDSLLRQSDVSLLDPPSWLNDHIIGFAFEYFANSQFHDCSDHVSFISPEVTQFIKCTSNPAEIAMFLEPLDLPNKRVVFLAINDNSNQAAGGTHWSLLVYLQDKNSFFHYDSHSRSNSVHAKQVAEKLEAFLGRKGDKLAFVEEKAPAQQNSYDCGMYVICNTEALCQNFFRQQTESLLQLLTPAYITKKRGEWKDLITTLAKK
The class given is functional.

Assay [9] addresses T4, Caspase-3 (Homo sapiens, UniProt P42574).
T4 sequence (P42574 whole entry): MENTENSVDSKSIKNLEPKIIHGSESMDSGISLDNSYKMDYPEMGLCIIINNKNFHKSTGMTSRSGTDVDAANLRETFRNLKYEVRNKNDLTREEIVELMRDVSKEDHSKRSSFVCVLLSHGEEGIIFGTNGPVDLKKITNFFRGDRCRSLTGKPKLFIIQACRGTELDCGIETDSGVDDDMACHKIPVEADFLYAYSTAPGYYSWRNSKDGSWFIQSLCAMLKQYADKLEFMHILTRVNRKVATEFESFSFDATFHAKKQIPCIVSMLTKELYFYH
It counts as functional.

The target in assay [10] is T5, Sentrin-specific protease 7 (Homo sapiens, UniProt Q9BQF6).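 Further: Luminescence-based dose-response confirmation of ultra-high-throughput screening hits, measuring inhibition of SENP7.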
T5 sequence (Q9BQF6 whole entry): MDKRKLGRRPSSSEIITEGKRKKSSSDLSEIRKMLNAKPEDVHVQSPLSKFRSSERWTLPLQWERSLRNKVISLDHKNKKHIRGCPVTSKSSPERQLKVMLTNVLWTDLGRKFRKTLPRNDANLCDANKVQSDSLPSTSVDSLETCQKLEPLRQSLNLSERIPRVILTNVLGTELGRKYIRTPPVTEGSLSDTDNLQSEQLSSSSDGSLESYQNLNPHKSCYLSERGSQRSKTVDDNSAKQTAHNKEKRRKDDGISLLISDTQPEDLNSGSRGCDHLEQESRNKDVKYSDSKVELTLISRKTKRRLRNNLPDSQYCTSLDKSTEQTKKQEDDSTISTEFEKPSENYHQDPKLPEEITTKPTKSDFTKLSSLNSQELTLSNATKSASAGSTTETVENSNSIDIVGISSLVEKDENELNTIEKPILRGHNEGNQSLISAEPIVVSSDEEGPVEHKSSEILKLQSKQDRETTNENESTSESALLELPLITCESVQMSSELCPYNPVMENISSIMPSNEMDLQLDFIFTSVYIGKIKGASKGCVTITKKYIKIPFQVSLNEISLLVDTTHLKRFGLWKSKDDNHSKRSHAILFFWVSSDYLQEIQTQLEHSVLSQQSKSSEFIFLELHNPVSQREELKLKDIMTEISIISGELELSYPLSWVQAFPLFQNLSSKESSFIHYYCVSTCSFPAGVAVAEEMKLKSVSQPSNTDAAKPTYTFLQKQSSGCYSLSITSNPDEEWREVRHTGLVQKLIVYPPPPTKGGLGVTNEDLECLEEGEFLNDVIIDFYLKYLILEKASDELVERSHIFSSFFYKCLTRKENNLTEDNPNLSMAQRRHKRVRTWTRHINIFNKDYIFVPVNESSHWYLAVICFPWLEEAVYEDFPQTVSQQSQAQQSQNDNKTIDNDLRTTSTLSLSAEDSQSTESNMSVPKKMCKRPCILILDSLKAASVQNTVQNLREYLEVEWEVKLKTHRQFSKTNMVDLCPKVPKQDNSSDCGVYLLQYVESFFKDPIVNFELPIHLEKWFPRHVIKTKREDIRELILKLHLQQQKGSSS
It counts as functional.

The target of assay [11] is T6, Sentrin-specific protease 6 (Homo sapiens, UniProt Q9GZR1).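 Further: Luminescence-based dose-response confirmatory assay of SENP6 inhibition, following up an ultra-high-throughput screen.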
T6 sequence (Q9GZR1 whole entry): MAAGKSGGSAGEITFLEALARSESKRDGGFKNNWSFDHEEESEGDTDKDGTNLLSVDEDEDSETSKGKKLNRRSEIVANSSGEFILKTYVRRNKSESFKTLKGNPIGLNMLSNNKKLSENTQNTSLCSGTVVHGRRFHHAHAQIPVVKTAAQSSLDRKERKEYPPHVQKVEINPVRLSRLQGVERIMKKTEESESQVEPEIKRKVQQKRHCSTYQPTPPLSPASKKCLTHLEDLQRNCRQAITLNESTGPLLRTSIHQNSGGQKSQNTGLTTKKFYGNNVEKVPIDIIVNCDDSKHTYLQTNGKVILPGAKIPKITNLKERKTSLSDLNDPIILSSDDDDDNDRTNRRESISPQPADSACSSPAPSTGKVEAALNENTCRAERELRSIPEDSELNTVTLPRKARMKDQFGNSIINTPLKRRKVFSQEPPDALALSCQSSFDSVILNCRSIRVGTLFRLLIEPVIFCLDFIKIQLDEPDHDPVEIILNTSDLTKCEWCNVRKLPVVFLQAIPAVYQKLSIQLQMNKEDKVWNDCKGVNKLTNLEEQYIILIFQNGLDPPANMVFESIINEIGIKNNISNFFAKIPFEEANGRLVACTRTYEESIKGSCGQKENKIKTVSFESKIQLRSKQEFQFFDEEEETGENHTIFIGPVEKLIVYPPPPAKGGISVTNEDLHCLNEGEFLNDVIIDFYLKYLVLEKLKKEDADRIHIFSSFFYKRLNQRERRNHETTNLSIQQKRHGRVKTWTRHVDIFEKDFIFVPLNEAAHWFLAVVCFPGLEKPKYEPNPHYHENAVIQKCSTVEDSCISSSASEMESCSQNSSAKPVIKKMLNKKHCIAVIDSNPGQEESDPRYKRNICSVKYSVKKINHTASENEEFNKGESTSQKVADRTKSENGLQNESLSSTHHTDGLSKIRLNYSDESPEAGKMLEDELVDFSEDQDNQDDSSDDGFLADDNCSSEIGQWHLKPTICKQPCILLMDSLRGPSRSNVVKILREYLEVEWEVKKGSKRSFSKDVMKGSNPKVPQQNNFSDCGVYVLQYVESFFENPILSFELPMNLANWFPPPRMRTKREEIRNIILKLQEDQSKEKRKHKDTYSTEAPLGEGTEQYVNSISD
It counts as functional.

Assay [12] has as its target Aryl hydrocarbon receptor (Homo sapiens, UniProt P35869). To be noted: Potency.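 Further: confirmatory quantitative high-throughput screen measuring activation of the AhR signaling pathway.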
Assay [13] can be described thus: C. albicans growth with fluconazole, confirmation, fluorescence, retest (AID 2467). The class given is functional, cell-based.
Assay [14] addresses T7, Polyadenylate-binding protein 1 (Homo sapiens, UniProt P11940). As to the kind of experiment: PABP1 MLLE–PAM2 interaction inhibitors, dose response, miRNA deadenylation inhibitor project, biochemical, fluorescence polarization, Cy5-PAM2 peptide, secondary (AID 602260). To be noted: read-out: IC50_Mean. The class given is functional. A general note: Polarisation of emitted light reports the rotation of a fluorescent probe.

The target in assay [15] is T7, Polyadenylate-binding protein 1. As to the kind of experiment: PABP1 MLLE–PAM2 binding inhibitor potency, dose response, biochemical, fluorescence polarization, FITC-PAM2 peptide (AID 602259). To be noted: read-out: IC50_Mean. The class given is functional.
The nature of assay [16]: NIH-3T3 fibroblast cytotoxicity, dose response, cytotoxicity control, cell-based, fluorescence, Alamar Blue, secondary assay (AID 2327).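 Further: NIH-3T3 mouse fibroblasts cultured with fluconazole at 8 µg/mL.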 The class given is functional. A general note: Resazurin is reduced to fluorescent resorufin, in cell work by metabolically active cells.

Activity calls are given as the source filed them.

T7 sequence (P11940 whole entry): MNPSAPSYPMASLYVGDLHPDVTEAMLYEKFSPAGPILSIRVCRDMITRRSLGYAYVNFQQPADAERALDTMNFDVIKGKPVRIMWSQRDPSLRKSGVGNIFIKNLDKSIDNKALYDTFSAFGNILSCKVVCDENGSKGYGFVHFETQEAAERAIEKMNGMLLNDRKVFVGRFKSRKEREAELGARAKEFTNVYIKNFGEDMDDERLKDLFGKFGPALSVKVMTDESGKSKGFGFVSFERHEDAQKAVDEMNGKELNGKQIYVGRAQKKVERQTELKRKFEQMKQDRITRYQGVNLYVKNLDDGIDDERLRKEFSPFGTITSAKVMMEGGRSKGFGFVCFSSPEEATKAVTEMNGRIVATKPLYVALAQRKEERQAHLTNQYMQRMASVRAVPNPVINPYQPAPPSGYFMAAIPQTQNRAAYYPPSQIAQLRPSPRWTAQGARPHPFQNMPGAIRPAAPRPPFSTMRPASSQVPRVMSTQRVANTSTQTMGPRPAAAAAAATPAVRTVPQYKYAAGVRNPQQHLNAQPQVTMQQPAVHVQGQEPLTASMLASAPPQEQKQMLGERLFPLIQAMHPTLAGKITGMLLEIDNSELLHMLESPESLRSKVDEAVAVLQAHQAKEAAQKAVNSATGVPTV
Adenosylmethionine-8-amino-7-oxononanoate aminotransferase, sequence (P9WQ81 whole entry): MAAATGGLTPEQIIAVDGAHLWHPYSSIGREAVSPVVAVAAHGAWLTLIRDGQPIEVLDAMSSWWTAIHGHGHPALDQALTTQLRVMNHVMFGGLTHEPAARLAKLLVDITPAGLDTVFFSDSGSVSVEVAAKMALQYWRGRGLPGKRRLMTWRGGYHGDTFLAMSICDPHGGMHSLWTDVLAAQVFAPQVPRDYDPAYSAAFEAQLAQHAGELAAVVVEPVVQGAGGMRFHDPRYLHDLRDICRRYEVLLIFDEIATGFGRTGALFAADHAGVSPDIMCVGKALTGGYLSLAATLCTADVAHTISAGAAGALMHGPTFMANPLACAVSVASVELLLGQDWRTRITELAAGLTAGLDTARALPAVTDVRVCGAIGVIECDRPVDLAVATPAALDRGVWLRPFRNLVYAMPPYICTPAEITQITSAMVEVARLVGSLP
Aryl hydrocarbon receptor, sequence (P35869 whole entry): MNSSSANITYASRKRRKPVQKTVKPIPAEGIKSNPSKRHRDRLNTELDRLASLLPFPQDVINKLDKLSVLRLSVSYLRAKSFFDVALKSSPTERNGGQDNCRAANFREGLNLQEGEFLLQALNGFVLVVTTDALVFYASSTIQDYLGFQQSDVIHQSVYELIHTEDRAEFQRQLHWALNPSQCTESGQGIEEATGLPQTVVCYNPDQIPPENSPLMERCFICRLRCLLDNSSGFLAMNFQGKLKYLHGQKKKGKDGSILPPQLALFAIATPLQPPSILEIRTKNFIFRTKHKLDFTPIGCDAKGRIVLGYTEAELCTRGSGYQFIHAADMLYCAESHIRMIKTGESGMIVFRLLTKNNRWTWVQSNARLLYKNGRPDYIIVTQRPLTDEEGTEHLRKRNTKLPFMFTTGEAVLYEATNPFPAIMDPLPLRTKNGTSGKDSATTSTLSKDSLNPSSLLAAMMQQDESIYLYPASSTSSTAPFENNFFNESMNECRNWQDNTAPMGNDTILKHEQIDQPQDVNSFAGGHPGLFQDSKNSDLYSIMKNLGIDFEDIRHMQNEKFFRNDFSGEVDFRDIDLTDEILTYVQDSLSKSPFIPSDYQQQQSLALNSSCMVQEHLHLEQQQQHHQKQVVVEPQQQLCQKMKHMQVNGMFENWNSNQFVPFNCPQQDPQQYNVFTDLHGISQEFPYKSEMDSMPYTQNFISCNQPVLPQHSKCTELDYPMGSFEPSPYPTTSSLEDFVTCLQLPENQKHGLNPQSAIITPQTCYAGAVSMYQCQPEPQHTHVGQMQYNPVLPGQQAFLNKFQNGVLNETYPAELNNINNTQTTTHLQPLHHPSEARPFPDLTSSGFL
Cytochrome P450 2C9, sequence (P11712 whole entry): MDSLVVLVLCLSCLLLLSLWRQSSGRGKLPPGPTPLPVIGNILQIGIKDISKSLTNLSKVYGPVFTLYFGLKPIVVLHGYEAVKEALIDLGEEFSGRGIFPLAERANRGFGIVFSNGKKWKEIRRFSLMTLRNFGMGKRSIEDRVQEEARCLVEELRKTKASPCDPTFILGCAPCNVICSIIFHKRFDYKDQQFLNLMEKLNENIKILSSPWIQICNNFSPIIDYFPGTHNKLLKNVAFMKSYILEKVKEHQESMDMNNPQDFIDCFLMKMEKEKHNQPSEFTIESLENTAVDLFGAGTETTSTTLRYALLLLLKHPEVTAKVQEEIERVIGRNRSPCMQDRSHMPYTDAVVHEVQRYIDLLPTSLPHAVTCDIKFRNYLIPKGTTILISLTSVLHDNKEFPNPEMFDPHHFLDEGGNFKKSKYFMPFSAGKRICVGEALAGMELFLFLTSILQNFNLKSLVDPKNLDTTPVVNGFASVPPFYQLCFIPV
Cytochrome P450 2C19, sequence (P33261 whole entry): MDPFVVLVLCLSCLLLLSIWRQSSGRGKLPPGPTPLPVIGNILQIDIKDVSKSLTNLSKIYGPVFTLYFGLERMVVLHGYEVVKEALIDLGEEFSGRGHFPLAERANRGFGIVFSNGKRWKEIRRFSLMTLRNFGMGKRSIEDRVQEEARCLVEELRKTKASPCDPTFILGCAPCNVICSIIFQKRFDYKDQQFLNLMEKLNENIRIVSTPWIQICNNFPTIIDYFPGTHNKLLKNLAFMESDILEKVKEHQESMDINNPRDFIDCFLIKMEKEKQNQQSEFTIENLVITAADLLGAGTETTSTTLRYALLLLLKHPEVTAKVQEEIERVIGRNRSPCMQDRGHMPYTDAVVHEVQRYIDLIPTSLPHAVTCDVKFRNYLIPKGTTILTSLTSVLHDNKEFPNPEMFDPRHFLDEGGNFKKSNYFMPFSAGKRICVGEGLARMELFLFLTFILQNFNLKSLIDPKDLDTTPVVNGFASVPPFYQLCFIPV
Cytochrome P450 3A4, sequence (P08684 whole entry): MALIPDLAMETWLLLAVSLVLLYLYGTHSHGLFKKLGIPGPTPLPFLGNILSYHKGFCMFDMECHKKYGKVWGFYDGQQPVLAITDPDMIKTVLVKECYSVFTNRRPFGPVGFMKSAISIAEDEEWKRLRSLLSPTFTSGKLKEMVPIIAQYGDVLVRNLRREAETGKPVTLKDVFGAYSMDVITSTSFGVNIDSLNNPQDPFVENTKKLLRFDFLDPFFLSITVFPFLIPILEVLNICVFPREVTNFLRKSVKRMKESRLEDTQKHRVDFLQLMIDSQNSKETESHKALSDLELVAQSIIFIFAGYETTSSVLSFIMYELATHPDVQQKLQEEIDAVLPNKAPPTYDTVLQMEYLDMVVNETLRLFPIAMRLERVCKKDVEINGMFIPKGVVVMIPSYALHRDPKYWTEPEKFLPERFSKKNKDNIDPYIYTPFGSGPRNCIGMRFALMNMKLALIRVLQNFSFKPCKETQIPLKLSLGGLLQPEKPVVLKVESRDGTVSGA

For orientation: AC50 means the midpoint of the concentration-response curve, whichever way the signal moves. In the case of `CC(=O)c1ccc(C(=O)N2CCCC(CCC(=O)N(C)CCc3ccccn3)C2)s1` (centres undefined), in assay [1], the AC50 was 12.4 µM (active).

For the compound `O=C(Nc1cccc(-c2nc3ncccc3o2)c1)c1sc2ccccc2c1Cl`, the IC50 in assay [2] was 3.81 µM (active). Besides, the AC50 in [3] is 3.98 µM (inconclusive); in [4] it was 0.355 µM (inconclusive); in assay [5], 2 µM (inconclusive).

Take `CCOC(=O)c1cnc(SSc2ncc(C(=O)OCC)c(N)n2)nc1N`: the IC50 in assay [6] is 14.5 µM (active).

As to `Cc1ccc(-c2nc(NCc3cccnc3)c3ccccc3n2)cc1`, the IC50 in [2] is 8.04 µM (active); in assay [6], 13.7 µM (active).

For `O=C(C1CCOCC1)N1CC[C@@H]2[C@H](CO)Nc3ccc(Br)cc3[C@@H]21`, the concentration at half-maximal activity (AC50) in assay [1] is 4.43 µM (active).

Consider `CCS(=O)(=O)c1ccc2c(c1)NC(=O)C(C)(C(=O)O)O2` (centres undefined), for which, in [7], the EC50 is > 100 µM (inactive).

As for `O=C(Oc1ccc(OC(=O)N2CCOCC2)cc1)c1ccccc1`, the IC50 is > 100 µM (inactive) in [8], 14.8 µM (active) in [9], 14.2 µM (active) in [10] and > 100 µM (inactive) in [11].

With `COc1ccc(C)cc1NC(=O)CCS(=O)(=O)c1ccc2c(c1)CC(=O)N2C`, the EC50 in assay [7] was > 100 µM (inactive).

With `COP(=S)(OC)Oc1c(Cl)cc(C)cc1Cl` [TOLCOFOS-METHYL], in [12], the half-maximal activity concentration (AC50) is 79.4 µM (inconclusive).

`Cc1[nH]n(C(N)=S)c(=O)c1/N=N/c1ccc(S(=O)(=O)N2CCCCCC2)cc1`: the EC50 was > 38 µM (not active) in assay [13] and > 160 µM (inactive) in [16]. Besides, the IC50 in assay [8] is 2.52 µM (active); in assay [9] it was 12.9 µM (active); in [14], > 66 µM (inactive); in assay [10], 9.68 µM (active); in assay [11] it was 15.5 µM (active); in assay [15] it was > 66 µM (inactive).
